# Article PMC5128743, “Marine Fungi as Producers of Benzocoumarins, a New Class of Inhibitors of Glycogen-Synthase-Kinase 3β” (Marine Drugs, 2016)
# Read-outs that look alike come from different tables or passages of the source.
# What was measured:
# [1] = target: T1, GSK-3β (N-terminal His6-tagged recombinant human GSK3β with an H350L mutation) (Homo sapiens, UniProt P49841); experiment: GSK-3β luminescent (Kinase-Glo) inhibition assay; assay type: biochemical
# T1 construct: His6 (N); purchased EMD Millipore, Billerica, MA, USA
# T1 sequence (P49841 whole entry, stated change not applied): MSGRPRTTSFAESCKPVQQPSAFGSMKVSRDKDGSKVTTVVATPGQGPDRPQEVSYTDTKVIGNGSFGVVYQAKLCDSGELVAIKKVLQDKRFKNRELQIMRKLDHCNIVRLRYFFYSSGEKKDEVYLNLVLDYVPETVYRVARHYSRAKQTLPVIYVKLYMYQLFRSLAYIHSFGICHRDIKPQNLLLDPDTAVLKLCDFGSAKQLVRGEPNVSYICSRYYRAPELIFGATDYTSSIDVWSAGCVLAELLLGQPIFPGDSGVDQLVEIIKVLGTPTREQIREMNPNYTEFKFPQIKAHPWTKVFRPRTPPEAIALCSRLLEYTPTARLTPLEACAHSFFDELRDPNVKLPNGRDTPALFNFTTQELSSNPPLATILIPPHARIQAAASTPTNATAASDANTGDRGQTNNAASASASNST
# Procedure: (§1) The assay is based on the phosphorylation of a peptide by the enzyme with ATP as phosphate donor. ATP, luciferin, and oxygen react to oxyluciferin, which is measured as a luminescence signal. The more the enzyme is inhibited, the stronger the luminescence signals are because of high ATP levels. 20 μL substrate solution (2 μM ATP, 40 μM peptide HSSPHQ-pSer-EDEEE (BIOSYNTAN, Berlin, Germany)) and 10 μL enzyme solution (12 mU GSK-3β (N-terminal His6-tagged recombinant human GSK3β with an H350L mutation, EMD Millipore, Billerica, MA, USA)) were incubated for 60 min at 25 °C. Then 40 μL Kinase-Glo reagent (Kinase-Glo Luminescent Assay Kit, Promega, Darmstadt, Germany) was added. After centrifugation and incubation for 10 min at 25 °C, the luminescence was measured. […] The antimicrobial activities of compounds 1, 2, and 3 against the bacterium Bacillus subtilis (DSM 347) and the human pathogenic yeast Candida albicans (DSM 1386) were determined according to Ohlendorf et al.. The determination of inhibitory activities against Xanthomonas campestris, Septoria tritici, and Propionibacterium acnes, as well as the cytotoxic activity against the cell line […] was carried out as described by Schneemann et al..
# [2] = system: Bacillus subtilis (DSM 347); experiment: Growth inhibition of Bacillus subtilis; assay type: cell-based
# Procedure: as §1
# [3] = system: Staphylococcus lentus; experiment: Growth inhibition of Staphylococcus lentus; assay type: cell-based; conditions: Mammaliicoccus lentus; test concentration of 100 μM; read-out: inhibition of growth of S. lentus
# [4] = system: HepG2; experiment: Cytotoxic activity against cancer cell line HepG2; conditions: concentration not given
# Procedure: as §1
# [5] = system: HMGCoA (3-hydroxy-3-methylglutaryl coenzyme A reductase); set-up: method as in PMID 1880066; conditions: cited from earlier work
# [6] = luminescent assay, 2 μM ATP substrate solution, 60 min at 25 °C
# [7] = DSM347, read-out: inhibition of growth of B. subtilis
"IC50 ([1]; luminescent assay, 2 μM ATP substrate solution, 60 min at 25 °C, read-out: IC50 of GSK-3β inhibition)",Structure (SMILES),"IC50 of GSK-3β inhibition [1, 6]","inhibition at 100 µM ([2]; DSM347, test concentration of 100 μM, read-out: inhibition of growth of B. subtilis)",inhibition at 100 µM [3],inhibition (cytotoxic effect) of cancer cell line HepG2 [4],HMGCoA reductase inhibiting activity [5],IC50 [1],"inhibition at 100 µM [2, 7]"
350 ± 40 nM,"Cc1cc2cc(O)cc(O)c2c2oc(=O)cc(O)c12 [Compound 1, pannorin]",sub-μM,54%,88%,lower than 35%,inhibiting activity,,
,"Cc1cc(O)cc2oc(=O)c3c(O)cc(O)cc3c12 [Compound 2, alternariol]",sub-μM,,66%,lower than 35%,,130 ± 40 nM,79%
,"COc1cc(O)c2c(=O)oc3cc(O)cc(C)c3c2c1 [Compound 3, alternariol-9-methylether]",sub-μM,,25%,lower than 35%,,200 ± 20 nM,82%
